Patent publication US20210361628A1, “2-OXOTHIAZOLE COMPOSITIONS FOR TREATMENT OF FIBROTIC DISEASE” (Avexxin AS, priority 2018, published 2021)
pIC50: −log10 of the molar value.

Tests used:
[1] = tested on: α-SMA mRNA in NRK-49F cells; experiment: TGF-β1 induced α-SMA mRNA expression in NRK-49F cells (qRT-PCR); assay type: cell-based, rat; settings: 5 μM, 10 ng/ml TGF-β1 for 24 h
Description: NRK-49F (normal rat kidney fibroblasts, ATCC® CRL-1570™) were maintained in DMEM with 4500 mg/L glucose, 5% FBS, L-glutamine, and gentamicin. For experiments, 3×10^5 cells/well were seeded in 6-well plates. After three days, post-confluent cells were serum starved for 24 h. They were then pre-incubated with inhibitors for 90 min, before they were treated with 10 ng/ml TGF-β1 for 24 h (mRNA-expression).
(§1) Total RNA was isolated using the RNeasy Mini Kit (Qiagen). cDNA synthesis was performed with 1 μg total RNA in 20 μl reaction of QuantiTect Reverse Transcription Kit (Qiagen). After synthesis, cDNA was diluted 1:6 with RNase-free water. qRT-PCR was performed with LightCycler 480 SYBR Green I Master (Roche), and the qRT-PCR analyses were carried out using the Lightcycler 96 system (Roche).

[2] = tested on: Ptgs2 mRNA in RMC (rat mesangial cells); experiment: TGF-β1 induced Ptgs2 mRNA expression in RMC (qRT-PCR); assay type: cell-based; settings: 5 μM, 5 ng/ml TGF-β1 for 24 h
Description: (§2) RMC (rat mesangial cells, ATCC® CRL-2573™) were maintained in DMEM with 4500 mg/L glucose (Sigma), 15% FBS, L-glutamine, and 0.4 mg/ml G418. For experiments, 3×10^5 cells/well were seeded in 6-well plates. After five days, post-confluent cells were serum starved for 24 h. They were then pre-incubated with inhibitors for 90 min, before they were treated with 5 ng/ml TGF-β1 for 24 h.
as §1

[3] = tested on: PGE2 production in human PBMC; experiment: LPS-induced PGE2 production in human PBMC (EIA); assay type: cell-based; settings: LPS 10 ng/mL, 72 hrs
Description: Blood was recruited from healthy donors at St. Olavs Hospital HF, the Bloodbank (project approved by Regional Ethical Committee of Mid-Norway; #2016/553). Peripheral blood mononuclear cells (PBMC) were isolated using SepMate™ separation tubes with LymphoPrep density gradient medium according to the STEMCELL Technology recommendations. For experiments, 1×10^6 cells/well/1 mL RPMI medium supplemented with 5% FBS, 0.3 mg/ml glutamine and 0.1 mg/ml gentamicin with- or without inhibitor. Treatments were added 2 hours prior to the addition of lipopolysaccharides as a potent inducer of inflammation (LPS from E. coli 026:B6 γ-irradiated, Sigma-Aldrich, #L2654). Following treatment (72 hrs., 37° C., 5% CO2), the cell suspensions were centrifuged to isolate the supernatant from the cell fraction. Samples were stored at −80° C. until analysis.
PBMC supernatants were analyzed by enzyme-linked immunosorbent assay (EIA) for PGE2 (Cayman #514010), according to the manufacturers protocols. PBMC supernatants were assayed at dilutions of 1:100, except supernatants from non-LPS treated PBMC that were assayed undiluted in all assays. Supernatants were hybridized over-night incubation, enzymatic conversion of substrate were read at OD420 nm. Data were processed using a 4-parameter logistic fit model.

[4] = tested on: PGE2 in rat renal mesangial cells; experiment: IL-1 induced PGE2 in rat renal mesangial cells (EIA); assay type: cell-based; settings: Mesangial cell, IL-1 stimulation
Description: Cell culture of rat renal mesangial cells were isolated, characterized and cultured as previously described (Pfeilschifter eteil., e1984).84ERLINK “htmesangial cells in 24-well plates were pretreated for 90library.wiley.com/doi/full/10.1111/Compound A before stimulation in a volume of 0.5 mL with IL-1eforenM, Cell Concept GmbH) to induce PGE2Hn in a volume of 0.5 mL with ILcom/doi/full^0C, 5% CO2), the cell suspensions were centrifuged to isolate the supernatant from the cell fraction. Samples were stored at −80° C. until analysis.
Rat mesangial cell supernatants were analyzed by EIA for PGE2 (Assay Designs, BIOTREND Chemikalien GmbH), according to the manufacturers protocols. Data were calculated as pg of PGE2 per 1.3×10^5 cells which was the cell number per well.

[5] = tested on: Ptgs2 mRNA in MRC-5 cells; experiment: TGF-β1 induced Ptgs2 mRNA expression in MRC-5 cells (qRT-PCR); assay type: cell-based, human; settings: 5 μM, 2 ng/ml TGF-β1 for 24 h
Description: MRC-5 (human lung fibroblast, ATCC® CCL-171™) were maintained in MEM with 10% FBS, L-glutamine, and gentamicin. For experiments, 1×10^5 cells/well were seeded in 6-well plates. After two days, pre-confluent cells were serum starved for 24 h. They were then pre-incubated with inhibitors for 90 min, before they were treated with 2 ng/ml TGF-β1 for 24 h.
as §1

[6] = tested on: α-SMA mRNA in RMC (rat mesangial cells); experiment: TGF-β1 induced α-SMA mRNA expression in RMC mesangial cell line (qRT-PCR); assay type: cell-based; settings: 5 ng/ml TGF-β1 for 24 h, not significant
Description: as §2, §1

[7] = read-out: estimated IC50 of PGE2 inhibition

For CCCCCCCOc1ccc(OCC(=O)c2nc(C(=O)OC)cs2)cc1 [Compound A], the “inhibition of TGF-β1 induced expression of α-SMA mRNA” value [1] was 50%, the “Ptgs2 mRNA levels” value [2] was “seem to reduce Ptgs2 mRNA levels” and the PGE2 production ([3]; 10 μM (highest dose), LPS alone 18185+/−11200 pg/mL) was 510 ± 406 pg/mL. It also gave a pIC50 [3, 7] of 6.36, an inhibition at 10 µM ([4]; 10 μM) of 65% and a pIC50 [4, 7] of 6.05. For the same compound, the Ptgs2 expression [5] was “reduced Ptgs2 expression” and the “reduction of α-SMA mRNA expression” value [6] was “around 35%”.
